Assay results from US20230286973A1, “PROTEIN SECRETION INHIBITORS” (KEZAR LIFE SCIENCES, priority 2020, published 2023).
Where two headings read alike, the source gives them in different places.

Columns and labels:
[1] = Liver Microsome Stability Assay (monkey); conditions: monkey liver microsomes, with NADPH, 1.0 uM compound
Description: (§1) Stability of a compound was assessed in the presence of liver microsomes from various sources—mouse, rat, monkey and human liver microsomes. 1.0 uM compound, 0.4% DMSO in 0.1 M Potassium Phosphate with 1.0 mg/mL liver microsomes, were incubated at 37° C. with or without 1 mM NADPH. The samples were quenched at 0, and 30 minutes.

[2] = Liver Microsome Stability Assay (mouse); conditions: mouse liver microsomes, with NADPH, 1.0 uM compound
Description: as §1

[3] = test system: IL-2-FL/Gaussia Luciferase; assay: Dox Induced IL2-FL-Gluc Assay; format: cell-based; conditions: for IC50: 24 hr Dox induction, 293FRT/TO cells, read-out: 24 hr Dox Inducible IL2FLGluc 293FRT/TO: Mean IC50; for 24 hr Dox Inducible IL2FLGluc 293FRT/TO: IL2/PD1: ratio of IL2FLGluc IC50 to PD1ssGluc IC50
In short: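 Cells are plated one day ahead, then receive compound dilutions in DMSO/media with doxycycline and incubate at 37° C, 5% CO2. They are Flp-In 293 T-REx cells expressing a full-length IL-2 (amino acids 1-153)–Gaussia luciferase fusion under T-REx control.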

[4] = test system: multiple myeloma cell line NCI-H929; assay: H929 Cell Viability Assay; format: cell-based, human; conditions: Homo sapiens, NCI-H929, 48 h, NCI-H929 cells, Celltiter-Glo
In short: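 Luminescent ATP detection (CellTiter-Glo) after 48 hours of compound exposure measures viability. Cells were plated in RPMI 1640 containing 10% fetal bovine serum and kept at 37° C under 5% CO2.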

[5] = test system: TNFα-FL/Gaussia Luciferase; assay: Dox Induced TNFα-FL-Gluc Assay; format: cell-based; conditions: for IC50: 24 hr Dox induction, 293FRT/TO cells, read-out: 24 hr Dox Inducible TNFaFLGluc 293FRT/TO: Mean IC50; for 24 hr Dox Inducible TNFaFLGluc 293FRT/TO: TNF/PD1: ratio of TNFaFLGluc IC50 to PD1ssGluc IC50
In short: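 Stereoisomer mixtures were tested where stereochemistry is not drawn. Induction used doxycycline added together with compound dilutions in DMSO/media to Flp-In 293 T-REx cells carrying a T-REx-regulated TNFα (aa 1-233)-Gaussia luciferase construct, then incubated at 37 °C, 5% CO2.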

[6] = Liver Microsome Stability Assay (human); conditions: human liver microsomes, with NADPH, 1.0 uM compound
Description: as §1

[7] = test system: HER3-ss+4aa/Gaussia Luciferase; assay: Dox-Induced Her3-ss-Gluc Assay; format: cell-based; conditions: 24 hr Dox induction, 293FRT/TO cells, read-out: 24 hr Dox Inducible Her3(ss + 4)Gluc 293FRT/TO: Mean IC50
In short: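 Cells were seeded a day ahead, then given compound diluted in DMSO/media with doxycycline to induce expression of the HER3 signal sequence (+4 aa)–Gaussia luciferase fusion. Incubation was at 37° C., 5% CO2, in a stable Flp-In 293 T-REx line.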

[8] = test system: multiple myeloma cell line U266B1; assay: U266 Cell Viability Assay; format: cell-based, human; conditions: Homo sapiens, U-266, 48 h, U266B1 cells, Celltiter-Glo
In short: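 Steps: culture in RPMI 1640 plus 10% FBS and 2 mM glutamine; plate and add compound dilutions; incubate 48 hours at 37° C., 5% CO2; add CellTiter-Glo and quantify luciferase signal.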

[9] = Liver Microsome Stability Assay (rat); conditions: rat liver microsomes, with NADPH, 1.0 uM compound
Description: as §1

[10] = test system: PD1-ss+10aa/Gaussia Luciferase; assay: Dox-Induced PD1-ss-Gluc Assay; format: cell-based; conditions: 24 hr Dox induction, 293FRT/TO cells, read-out: 24 hr Dox Inducible PD1ssGluc 293FRT/TO: Mean IC50
In short: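 Flp-In 293 T-REx cells stably carrying a doxycycline-inducible Gaussia luciferase fused to the PD1 signal sequence plus 10 aa were plated the day before. Compound dilutions in DMSO/media containing doxycycline were then added and incubated at 37 °C, 5% CO2. Data for undefined stereochemistry refer to stereoisomer mixtures.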

[11] = '<=>' given where both are I.A.

Cc1c(/C=C/c2csc(NC(=O)c3cccn3Cc3ccncc3)n2)ncn1C(C)C [Compound B58, (E)-N-(4-(2-(1-isopropyl-5-methyl-1H-imidazol-4-yl)vinyl)thiazol-2-yl)-1-(pyridin-4-ylmethyl)-1H-pyrrole-2-carboxamide]
Liver Microsome Stability (Multiple Species): Monkey - % Remaining after 30 min w/NADPH [1]: 5.89% | Liver Microsome Stability (Multiple Species): Mouse - % Remaining after 30 min w/NADPH [2]: 2.14% | IC50 [3]: > 19.7 µM | 24 hr Dox Inducible IL2FLGluc 293FRT/TO: IL2/PD1 [3]: >810 | EC50 [4]: 15.4 µM | IC50 [5]: 2.31 µM | 24 hr Dox Inducible TNFaFLGluc 293FRT/TO: TNF/PD1 [5]: 952 | Liver Microsome Stability (Multiple Species): Human - % Remaining after 30 min w/NADPH [6]: 0.28% | IC50 [7]: 12.4 µM | EC50 [8]: 18.4 µM | Liver Microsome Stability (Multiple Species): Rat - % Remaining after 30 min w/NADPH [9]: 1.67% | IC50 [10]: 0.0244 µM

CC1CCn2cnc(/C=C/c3csc(NC(=O)c4cccn4Cc4ccnc(F)c4)n3)c2C1 (stereo not drawn) [Compound B97, (E)-1-((2-fluoropyridin-4-yl)methyl)-N-(4-(2-(7-methyl-5,6,7,8-tetrahydroimidazo[1,5-a]pyridin-1-yl)vinyl)thiazol-2-yl)-1H-pyrrole-2-carboxamide]
Liver Microsome Stability (Multiple Species): Monkey - % Remaining after 30 min w/NADPH [1]: 0.13% | Liver Microsome Stability (Multiple Species): Mouse - % Remaining after 30 min w/NADPH [2]: 13.8% | IC50 [3]: 7.51 µM | 24 hr Dox Inducible IL2FLGluc 293FRT/TO: IL2/PD1 [3]: 31 | EC50 [4]: > 25 µM | IC50 [5]: > 25 µM | 24 hr Dox Inducible TNFaFLGluc 293FRT/TO: TNF/PD1 [5]: >103 | Liver Microsome Stability (Multiple Species): Human - % Remaining after 30 min w/NADPH [6]: 0.3% | IC50 [7]: 4.79 µM | EC50 [8]: > 25 µM | Liver Microsome Stability (Multiple Species): Rat - % Remaining after 30 min w/NADPH [9]: 10.8% | IC50 [10]: 0.244 µM

C[C@H](CC#N)Cn1cccc1C(=O)Nc1nc([C@H]2CCCN2c2ccccc2)cs1 [Compound C88, 1-((R)-3-cyano-2-methylpropyl)-N-(4-((R)-1-phenylpyrrolidin-2-yl)thiazol-2-yl)-1H-pyrrole-2-carboxamide]
Liver Microsome Stability (Multiple Species): Monkey - % Remaining after 30 min w/NADPH [1]: 1.91% | Liver Microsome Stability (Multiple Species): Mouse - % Remaining after 30 min w/NADPH [2]: 14.8% | IC50 ([3]; mean): 1.9 µM | 24 hr Dox Inducible IL2FLGluc 293FRT/TO: IL2/PD1 [3, 11]: 3.3 | EC50 [4]: 21.8 µM | IC50 ([5]; mean): 5.93 µM | 24 hr Dox Inducible TNFaFLGluc 293FRT/TO: TNF/PD1 [5, 11]: 10.2 | Liver Microsome Stability (Multiple Species): Human - % Remaining after 30 min w/NADPH [6]: 15.7% | IC50 ([7]; mean): 0.942 µM | EC50 [8]: > 25 µM | Liver Microsome Stability (Multiple Species): Rat - % Remaining after 30 min w/NADPH [9]: 5.31% | IC50 ([10]; mean): 0.581 µM

O=C(Nc1nc([C@H]2CCCN2c2ccc(Br)cc2)cs1)c1cccn1Cc1ccnc(F)c1 [Compound A116]
Liver Microsome Stability (Multiple Species): Monkey - % Remaining after 30 min w/NADPH [1]: 18.9% | Liver Microsome Stability (Multiple Species): Mouse - % Remaining after 30 min w/NADPH [2]: 60.7% | IC50 [3]: 0.00493 µM | 24 hr Dox Inducible IL2FLGluc 293FRT/TO: IL2/PD1 [3]: 2.5 | EC50 [4]: 0.16 µM | IC50 [5]: 0.0395 µM | 24 hr Dox Inducible TNFaFLGluc 293FRT/TO: TNF/PD1 [5]: 19.7 | Liver Microsome Stability (Multiple Species): Human - % Remaining after 30 min w/NADPH [6]: 45.3% | IC50 [7]: 0.00414 µM | EC50 [8]: > 25 µM | Liver Microsome Stability (Multiple Species): Rat - % Remaining after 30 min w/NADPH [9]: 37.7% | IC50 [10]: 0.002 µM

CC(CC(N)=O)n1cnc(/C=C/c2csc(NC(=O)c3cccn3Cc3ccnc(F)c3)n2)c1 (stereo not drawn) [Compound B111, (E)-N-(4-(2-(1-(4-amino-4-oxobutan-2-yl)-1H-imidazol-4-yl)vinyl)thiazol-2-yl)-1-((2-fluoropyridin-4-yl)methyl)-1H-pyrrole-2-carboxamide]
Liver Microsome Stability (Multiple Species): Monkey - % Remaining after 30 min w/NADPH [1]: 5.79% | Liver Microsome Stability (Multiple Species): Mouse - % Remaining after 30 min w/NADPH [2]: 61.7% | IC50 [3]: > 25 µM | 24 hr Dox Inducible IL2FLGluc 293FRT/TO: IL2/PD1 [3]: <=>1.0 | EC50 [4]: > 25 µM | IC50 [5]: > 25 µM | 24 hr Dox Inducible TNFaFLGluc 293FRT/TO: TNF/PD1 [5]: ⇔1.00 | Liver Microsome Stability (Multiple Species): Human - % Remaining after 30 min w/NADPH [6]: 9.45% | IC50 [7]: > 25 µM | EC50 [8]: > 25 µM | Liver Microsome Stability (Multiple Species): Rat - % Remaining after 30 min w/NADPH [9]: 75.4% | IC50 [10]: > 25 µM

O=C(Nc1nc([C@H]2CCCN2c2ccccc2)cs1)c1cccn1CC1COC1 [Compound C84, (R)-1-(oxetan-3-ylmethyl)-N-(4-(1-phenylpyrrolidin-2-yl)thiazol-2-yl)-1H-pyrrole-2-carboxamide]
Liver Microsome Stability (Multiple Species): Monkey - % Remaining after 30 min w/NADPH [1]: 0.28% | Liver Microsome Stability (Multiple Species): Mouse - % Remaining after 30 min w/NADPH [2]: 22.3% | IC50 ([3]; mean): > 25 µM | 24 hr Dox Inducible IL2FLGluc 293FRT/TO: IL2/PD1 [3, 11]: >5.9 | EC50 [4]: > 25 µM | IC50 ([5]; mean): > 25 µM | 24 hr Dox Inducible TNFaFLGluc 293FRT/TO: TNF/PD1 [5, 11]: >5.88 | Liver Microsome Stability (Multiple Species): Human - % Remaining after 30 min w/NADPH [6]: 31.5% | IC50 ([7]; mean): 6.59 µM | EC50 [8]: > 25 µM | Liver Microsome Stability (Multiple Species): Rat - % Remaining after 30 min w/NADPH [9]: 4.2% | IC50 ([10]; mean): 4.25 µM

CC(=O)Nc1ccc(N2CCC[C@@H]2c2csc(NC(=O)c3cccn3Cc3ccnc(F)c3)n2)cc1F [Compound A93, (R)-N-(4-(1-(4-acetamido-3-fluorophenyl)pyrrolidin-2-yl)thiazol-2-yl)-1-((2-fluoropyridin-4-yl)methyl)-1H-pyrrole-2-carboxamide]
Liver Microsome Stability (Multiple Species): Monkey - % Remaining after 30 min w/NADPH [1]: 0.14% | Liver Microsome Stability (Multiple Species): Mouse - % Remaining after 30 min w/NADPH [2]: 1.18% | IC50 [3]: 0.0263 µM | 24 hr Dox Inducible IL2FLGluc 293FRT/TO: IL2/PD1 [3]: 2.1 | EC50 [4]: 0.39 µM | IC50 [5]: 0.187 µM | 24 hr Dox Inducible TNFaFLGluc 293FRT/TO: TNF/PD1 [5]: 15.1 | Liver Microsome Stability (Multiple Species): Human - % Remaining after 30 min w/NADPH [6]: 4.24% | IC50 [7]: 0.0271 µM | EC50 [8]: > 25 µM | Liver Microsome Stability (Multiple Species): Rat - % Remaining after 30 min w/NADPH [9]: 0.11% | IC50 [10]: 0.0123 µM

O=C(Nc1nc([C@H]2CCCN2c2ccc(OC3CSC3)cc2)cs1)c1cccn1Cc1ccnc(F)c1 [Compound A157, (R)-1-((2-fluoropyridin-4-yl)methyl)-N-(4-(1-(4-(thietan-3-yloxy)phenyl)pyrrolidin-2-yl)thiazol-2-yl)-1H-pyrrole-2-carboxamide]
Liver Microsome Stability (Multiple Species): Monkey - % Remaining after 30 min w/NADPH [1]: 13.2% | Liver Microsome Stability (Multiple Species): Mouse - % Remaining after 30 min w/NADPH [2]: 0.84% | IC50 [3]: 0.0522 µM | 24 hr Dox Inducible IL2FLGluc 293FRT/TO: IL2/PD1 [3]: 1.2 | EC50 [4]: 1.47 µM | IC50 [5]: 0.407 µM | 24 hr Dox Inducible TNFaFLGluc 293FRT/TO: TNF/PD1 [5]: 9.64 | Liver Microsome Stability (Multiple Species): Human - % Remaining after 30 min w/NADPH [6]: 22.9% | IC50 [7]: 0.0497 µM | EC50 [8]: > 25 µM | Liver Microsome Stability (Multiple Species): Rat - % Remaining after 30 min w/NADPH [9]: 2.44% | IC50 [10]: 0.0422 µM

O=C(Nc1nc([C@H]2CCCN2c2ccc(OC3CCOCC3)cc2)cs1)c1cccn1Cc1ccncc1 [Compound A1, (R)-1-(pyridin-4-ylmethyl)-N-(4-(1-(4-((tetrahydro-2H-pyran-4-yl)oxy)phenyl)pyrrolidin-2-yl)thiazol-2-yl)-1H-pyrrole-2-carboxamide]
Liver Microsome Stability (Multiple Species): Monkey - % Remaining after 30 min w/NADPH [1]: 6.47% | Liver Microsome Stability (Multiple Species): Mouse - % Remaining after 30 min w/NADPH [2]: 24.8% | IC50 [3]: 0.0538 µM | 24 hr Dox Inducible IL2FLGluc 293FRT/TO: IL2/PD1 [3]: 2 | EC50 [4]: 1.23 µM | IC50 [5]: 0.369 µM | 24 hr Dox Inducible TNFaFLGluc 293FRT/TO: TNF/PD1 [5]: 13.7 | Liver Microsome Stability (Multiple Species): Human - % Remaining after 30 min w/NADPH [6]: 14.3% | IC50 [7]: 0.0584 µM | EC50 [8]: > 25 µM | Liver Microsome Stability (Multiple Species): Rat - % Remaining after 30 min w/NADPH [9]: 50% | IC50 [10]: 0.0269 µM
